Measured values published in patent US20210077477A1, “MICROGLIA MODULATORS FOR USE IN TREATMENT OF DEPRESSION” (priority 2018, published 2021).
“Also recorded” adds a separate entry of the source.

Columns and labels:
CUS-exposed mice [1] = assay: Sucrose preference test (anhedonia) in the CUS model; assay type: in vivo
Experimental: (§1) The CUS schedule comprised daily exposure to two stressors in a random order over a 5-week period. The list of CUS stressors included: cage shaking for 1 h with loud music and lights on, lights on during the entire night (12 h), lights-off for 3 h during the daylight phase, flashing (stroboscopic) light for 6 h, placement in 4° C. cold room for 1 h, mild restraint (in small ventilated cages) for 2 h, 45° cage tilt for 14 h, wet sawdust in the cage for 14 h, exposure to rat odor for 2 h, noise in the room for 3 h, and water deprivation for 12 h during the dark period.
Following baseline adaptation to sucrose for 3-4 days, mice were presented in the beginning of the dark circadian phase with two graduated drinking tubes, one containing tap water and the other 1% sucrose solution for 4 h. Sucrose preference was calculated as the percentage of sucrose consumption out of the total drinking volume.

CUS-exposed mice [2] = assay: Social exploration test in the CUS model; assay type: in vivo
Experimental: as §1
Each subject was placed in an observation cage and allowed to habituate to the cage for 15 min, following which a male juvenile was placed in the cage. Social exploration, defined as the time of near contact between the nose of the subject and the juvenile conspecific, was then recorded for 2 min, using computerized in-house software.

[3] = tested on: hippocampal gene transcripts; assay: qPCR validation of hippocampal gene expression; assay type: in vivo; details: hippocampus, CUS-exposed mice
Experimental: Mice were sacrificed by decapitation. Each brain was quickly removed on an ice-cold glass plate, and the hippocampus was dissected out under a binocular. Tissues were weighed, flash frozen in liquid nitrogen, and stored in −80° C. until RNA extraction. RNA was extracted using PerfectPure RNA extraction kit (5 PRIME, Darmstadt, Germany). RNA samples (2 μg) were reverse transcribed using the QuantiTect Reverse Transcription Kit from Qiagen (Hilden, Germany), including DNase treatment of contaminating genomic DNA. Expression of mRNA was determined by qPCR, using glyceraldehyde-3-phosphate dehydrogenase (Gapdh) as a normalizing gene. The following list of gene transcripts was validated: Ionized calcium-binding adapter molecule 1 (Iba1), the Purinergic receptor P2yr12, Lymphocyte-activation gene 3 (Lag-3), Cd180, tryptophan 2,3-dioxygenase (Tdo2), Phospholipase A2 Group IVE (Plag24e) Sox11, and Dopamine Receptor D1 (Drd1). Primers were designed using PrimerQuest IDT (Integrated DNA Technologies, Inc, San Diego, Calif., USA). The following primers were used, Gapdh, Forward: TCTCCCTCACAATTTCC (SEQ ID NO: 1); Reverse: GGGTGCAGCGAACTTTA (SEQ ID NO: 2). Drd1, Forward: […] (SEQ ID NO: 3); Reverse: […] (SEQ ID NO: 4). Tdo2, Forward: […] (SEQ ID NO: 5); Reverse: […] (SEQ ID NO: 6). Iba1, Forward: […] (SEQ ID NO: 7); Reverse: […] (SEQ ID NO: 8). Lag-3, Forward: […] (SEQ ID NO: 9); Reverse: […] (SEQ ID NO: 10). Cd180, Forward: […] (SEQ ID NO: 11); Reverse: […] (SEQ ID NO: 12). Sox11, Forward: […] (SEQ ID NO: 13); Reverse: […] (SEQ ID NO: 14). Plag24e, Forward: […] (SEQ ID NO: 15); Reverse: […] (SEQ ID NO: 16), and P2yr12 Forward: […] (SEQ ID NO: 17); Reverse: […] (SEQ ID NO: 18). Normal and mock reversed transcribed samples (in the absence of reverse transcriptase), as well as no template controls (total mix without cDNA) were run for each of the examined mRNAs. qPCR reactions were subjected to an initial step of 15 min at 95° C. to activate the HotStar Taq DNA polymerase, followed by 40 cycles consisting of 15 s at 94° C., 30 s at 60° C. and 30 s at 72° C. Fluorescence was measured at the end of each elongation step. Data were collected and analyzed using the StepOnePlus instrument and software (Thermo Fischer Scientific), and a threshold cycle value Ct was calculated from the exponential phase of each PCR sample. Expression levels of mRNAs were calculated and expressed in relative units of SYBR Green fluorescence.

hippocampal neurogenesis = assay: Hippocampal neurogenesis (DCX-positive cells in the DG); assay type: in vivo, mice; details: CUS-exposed, PLX diet, DCX-stained cells in DG
Experimental: Microglia were visualized using a primary antibody to the microglial marker ionized calcium-binding adapter molecule-1 (Iba-1) (rabbit anti Iba-1 1:250, Wako, Japan), followed by a secondary antibody (goat anti rabbit, 1:200; Invitrogen, Carlsbad, Calif., USA). The rate of neurogenesis in the hippocampus was measured by staining for doublecortin (DCX), using guinea pig anti-DCX (1:1,000, Millipore, Chemicon, Tamecula, Calif., USA) as the primary antibody, and biotin-SP-conjugated donkey anti-Guinea pig (1:200; Jackson Laboratories, West grove, PA, USA) as the secondary antibody, with final visualization using a conjugated streptavidin Ab (Jackson Laboratories, West grove, PA, USA). […]
Images were captured using a Nikon Eclipse microscope and camera. Cells were manually counted using 10× magnification in a defined area exclusively containing the dentate gyrus (DG) or CA3 region of the dorsal hippocampus for each slide, using Nikon Imaging Elements Software (NIS-Elements). Four sections of each brain were counted. […] Microglia cell processes length was measured by capturing images at 40× magnification and by manual tracing of the processes of all Iba-1+ cells in these sections, using the Image)/FIJI software. […] Contacts were recorded if spatial overlap was observed on the body or on the dendrite branches of P2YR12-positive cells. […]

brain microglia [4] = details: given chronically (more than 2-3 weeks); Danger et al., 2015; cited from earlier work
brain microglia [5] = assay: Microglia depletion by PLX5622 diet (IBA-1 staining); assay type: in vivo, mice; details: diet containing PLX5622 for weeks, incl. hippocampus
CUS-exposed mice [6] = assay: Porsolt forced swim test in the CUS model; assay type: in vivo
Experimental: as §1
Mice were placed in a plastic cylinder (with a height of 30 cm and diameter of 20 cm), filled with 25° C. water. The time spent immobile, defined as the absence of all movement except for motions required to maintain head above water were recorded for 6 min, and automatically analyzed off-line using the EthoVision software (Noldus).

[7] = tested on: hippocampal gene transcripts; assay: RNA sequencing of hippocampal gene transcription; assay type: in vivo, mice; details: for Log 2 (fold change) Con-Stress-Sham vs. PLX-Stress-Sham: hippocampus
Text: RNA Sequencing, PolyA based mRNA was selected using oligodT beads, followed by fragmentation, first strand and second strand synthesis reactions. Illumina libraries were constructed while performing the end repair, A base addition, adapter ligation and PCR amplification steps with SPRI beads cleanup in between steps. Indexed samples were pooled and sequenced in an Illumina HiSeq 2500 machine in a single read mode.
Bioinformatics analysis. Adapters were trimmed using the cutadapt tool. Following adapter removal, reads that were shorter than 40 nucleotides were discarded (cutadapt option −m 40). Reads that had either a percentage of Adenine bases above 50% or a percentage of Thymine bases above 50% were discarded using a custom script. TopHat (v2.0.10) was used to align the reads to the mouse genome (mm10). Counting reads on mm10 refseq genes (downloaded from igenomes) was done with HTSeq-count (version 0.6.1p1). Differential expression analysis was performed using DESeq2 (1.6.3). Raw p values were adjusted for multiple testing (q-value, false discovery rate).

[8] = CUS 5 weeks, antibody 100 μg i.p. every 4 days, 6 injections, Cipralex daily i.p., 3 weeks
[9] = PLX5622 diet, non-stressed mice
[10] = CUS-exposed SHAM-treated mice, q<0.32, cutoff ±1.3-fold

CN(C)CCC[C@@]1(c2ccc(F)cc2)OCc2cc(C#N)ccc21 [escitalopram]
sucrose preference after vs before chronic treatment (CUS-exposed mice [1]; [8]): had no such effect | social exploration (SE) after vs before chronic treatment (CUS-exposed mice [2]; [8]): significantly elevated; also recorded: significant increase

COc1ncc(F)cc1CNc1ccc(Cc2c[nH]c3ncc(C)cc23)c(F)n1 [PLX5622]
Cd180 gene expression in PLX-treated mice [3]: lower expression levels | Drd1 expression, effect of the microglia depletion procedure by itself [3]: not affected | Iba1 expression, effect of the PLX5622 procedure [3]: significantly reduced | Lag-3 transcription in PLX-treated mice [3]: almost completely abolished | P2ry12 expression, effect of the PLX5622 procedure [3]: significantly reduced | Sox11 expression, effect of the microglia depletion procedure by itself [3]: not affected | Tdo2 expression in PLX5622-treated mice [3]: significantly increased | pla2g4e expression in PLX5622-treated mice [3]: significantly increased | effect of ECT on hippocampal neurogenesis under microglia depletion (hippocampal neurogenesis): completely prevented | effect of ECT on hippocampal neurogenesis under microglia depletion (hippocampal neurogenesis; listed as PLX): significantly reduced | microglial depletion (brain microglia [4]): near-complete microglial depletion | anti-depressive effect of ECT under microglial depletion (CUS-exposed mice [1]; CUS-exposed, PLX5622 diet, 2.5-week course of ECT): markedly attenuated | effect of ECT on sucrose preference in PLX diet mice (CUS-exposed mice [1]; CUS-exposed, PLX diet, ECT 3 times/week for 2.5 weeks): only a small increase | development of CUS-induced depression (CUS-exposed mice [1]; PLX5622 diet, 5 weeks CUS, sucrose preference and social exploration): did not influence | sucrose preference, effect of microglia depletion by itself (CUS-exposed mice [1]; [9]): did not reduce | depletion of brain microglia (brain microglia [5]): near-complete depletion | forced swim immobility of ECT-treated PLX mice vs CDiet mice (CUS-exposed mice [6]; CUS-exposed, ECT 2.5 weeks): significantly greater forced swim immobility | immobility in forced swim, effect of microglia depletion by itself (CUS-exposed mice [6]; [9]): did not reduce | difference between effects of ECT on social exploration in PLX vs CDiet mice (CUS-exposed mice [2]; CUS-exposed, ECT 2.5 weeks): did not reach statistical significance | social exploration, effect of microglia depletion by itself (CUS-exposed mice [2]; [9]): did not reduce | genes differentially regulated, PLX vs CDiet [7, 10]: 390 genes | genes down-regulated, PLX vs CDiet [7, 10]: 338 genes | genes up-regulated, PLX vs CDiet [7, 10]: 52 genes | genes differentially regulated between SHAM vs ECT in PLX-treated groups ([7]; CUS-exposed mice): no genes were differentially regulated | Log 2 (fold change) Con-Stress-Sham vs. PLX-Stress-Sham ([7]; Cd40 transcript): 0.159 | Log 2 (fold change) Con-Stress-Sham vs. PLX-Stress-Sham ([7]; Cd80 transcript): 0.371 | Log 2 (fold change) Con-Stress-Sham vs. PLX-Stress-Sham ([7]; Cd86 transcript): 2.092 | Log 2 (fold change) Con-Stress-Sham vs. PLX-Stress-Sham ([7]; Cd180 transcript): 1.892 | Log 2 (fold change) Con-Stress-Sham vs. PLX-Stress-Sham ([7]; Cd276 transcript): 0.019 | Log 2 (fold change) Con-Stress-Sham vs. PLX-Stress-Sham ([7]; Ctla4 transcript): 0.100 | Log 2 (fold change) Con-Stress-Sham vs. PLX-Stress-Sham ([7]; Havcr2 (TIM-3) transcript): 2.101 | Log 2 (fold change) Con-Stress-Sham vs. PLX-Stress-Sham ([7]; Lag-3 transcript): 1.968 | Log 2 (fold change) Con-Stress-Sham vs. PLX-Stress-Sham ([7]; Lgals3 transcript): 0.011 | Log 2 (fold change) Con-Stress-Sham vs. PLX-Stress-Sham ([7]; PD-L1 transcript): 0.164 | Log 2 (fold change) Con-Stress-Sham vs. PLX-Stress-Sham ([7]; Pdcd1lg2 transcript): −0.373 | Log 2 (fold change) Con-Stress-Sham vs. PLX-Stress-Sham ([7]; Pdcd1 transcript): −0.669 | Log 2 (fold change) Con-Stress-Sham vs. PLX-Stress-Sham ([7]; Tdo2 transcript): −0.248 | Log 2 (fold change) Con-Stress-Sham vs. PLX-Stress-Sham ([7]; Tigit transcript): −0.804 | Log 2 (fold change) Con-Stress-Sham vs. PLX-Stress-Sham ([7]; Vtcn1 transcript): −0.905
